Values joined by “and” are separate entries in the source; they are usually repeats but may differ in a detail not shown here. Identical values can stand only once.
Assays:
[1] = system: strychnine-induced seizures; assay: Strychnine-induced seizure model; format: in vivo, mice; conditions: for survival rate of strychnine-poisoned animals: dose not given; for increase of the survival rate of the animals: reference drugs, versus control (100% died)
Source text: (§1) The anticonvulsant effects of the examined substances were studied in male white mice weighing 18–22 g, divided into the following groups: control (including the strychnine and nicotine groups), carbamazepine group, Convulex group, and experimental groups (one for each tested substance). Simple randomization (“heads or tails” coin toss) was used to assign animals to groups. Each group contained 10 animals. Healthy animals were included in the experiments after a 14-day quarantine period. No animals were excluded from the study. Convulsant agents were administered subcutaneously at doses of 10.0 mg/kg for nicotine (Sigma–Aldrich, Saint Louis, MO, USA) and 1.5 mg/kg for strychnine (Sigma–Aldrich, Saint Louis, MO, USA), 60 min after the oral administration of the test substances at doses ranging from 0.1 to 10 mg/kg. The onset time, duration of tremors and seizures, and survival rate of the animals were recorded. Carbamazepine (Darnitsa, Kiev, Ukraine) at doses of 5.0–10.0 mg/kg and Convulex (valproate) (Gerot Pharmazeutika GmbH, Vienna, Austria) at doses of 75.0–100.0 mg/kg (based on the therapeutic anticonvulsant dose) were used as reference drugs.
(§2) Data were presented as mean ± SD for different groups. Statistical analysis was performed using OriginPro 9.0 (MicroCal Software, Northampton, MA, USA), with p < 0.05 considered statistically significant.

[2] = system: tremorogenic and convulsive actions of nicotine; assay: Nicotine-induced tremor and seizure model; format: in vivo, mice; conditions: for responders at 1 mg/kg: po; for survival rate of the animals increased to: at low doses (0.1–5 mg/kg); for activity against tremorogenic and convulsive actions of nicotine versus reference drugs (in words): doses of 0.1–5 mg/kg; for survival rate: reference drugs
Source text: as §1, §2

[3] = design: method as in PMID 36677539; conditions: per os; cited from earlier work
[4] = Mus musculus, oral dose 1.0 mg/kg 60 min before strychnine 1.5 mg/kg s.c., N = 10, read-out: Survival Rate
[5] = oral dose 1.0 mg/kg 60 min before strychnine 1.5 mg/kg s.c., mean ± SD, N = 10
[6] = Mus musculus, read-out: Survival Rate
[7] = oral dose 1.0 mg/kg 60 min before nicotine 10 mg/kg s.c., mean ± SD, N = 10
[8] = dose 5.0 mg/kg, strychnine 1.5 mg/kg s.c.
[9] = dose 10.0 mg/kg, strychnine 1.5 mg/kg s.c.
[10] = doses of 5–10 mg/kg, versus control
[11] = Mus musculus, sc, read-out: Survival Rate
[12] = dose 5.0 mg/kg, nicotine 10 mg/kg s.c.
[13] = dose 10.0 mg/kg, nicotine 10 mg/kg s.c.
[14] = dose 75.0 mg/kg, strychnine 1.5 mg/kg s.c.
[15] = dose 100.0 mg/kg, strychnine 1.5 mg/kg s.c.
[16] = doses of 75–100 mg/kg, versus control
[17] = dose 75.0 mg/kg, nicotine 10 mg/kg s.c.
[18] = dose 100.0 mg/kg, nicotine 10 mg/kg s.c.

SMILES	responders at 1 mg/kg [1, 4]	Duration of Tremor and Seizures [1, 5]	Latency to Tremor and Seizure Onset [1, 5]	responders at 1 mg/kg [2, 6]	Duration of Seizures [2, 7]	Latency to Seizure Onset [2, 7]	LD50 [3]	further results
COc1cc2c(cc1OC)C(c1cccc(N)c1)NCC2 (centres unmarked) [Compound 33, 1-(3′-Aminophenyl)-6,7-dimethoxy-1,2,3,4-tetrahydroisoquinoline]	50%	0.42 ± 0.8 min	16.7 ± 1.0 min	80%	17.0 ± 0.6 min	2.2 ± 0.04 min	732.0 (598.2 ± 885.4) mg/kg	–
COc1cc2c(cc1OC)C(c1ccc(O)c(Br)c1)NCC2 (centres unmarked) [Compound 18, 1-(3′-Bromo-4′-hydroxyphenyl)-6,7-dimethoxy-1,2,3,4-tetrahydroisoquinoline]	50%	0.56 ± 0.6 min	14.6 ± 1.5 min	70%	8.9 ± 0.9 min	1.7 ± 0.04 min	3850 mg/kg and 3793.8 (3395.8 ± 4088.1) mg/kg	–
COc1cc2c(cc1OC)C(c1cc3c(cc1Br)OCO3)NCC2 (centres unmarked) [Compound 30, 1-(2′-Bromo-4′,5′-methylenedioxyphenyl)-6,7-dimethoxy-1,2,3,4-tetrahydroisoquinoline]	30%	0.41 ± 0.4 min	11.2 ± 1.2 min	90%	7.0 ± 0.2 min	2.5 ± 0.09 min	711.7 (604.3 ± 792.9) mg/kg	survival rate of the animals increased to [2]: 90–100%; activity against tremorogenic and convulsive actions of nicotine versus reference drugs (in words) [2]: comparable activity to the reference drugs
COc1cc2c(cc1OC)C(c1ccc(OC)c(O)c1Br)NCC2 (centres unmarked) [Compound 27, 1-(2′-Bromo-3′-hydroxy-4′-methoxyphenyl)-6,7-dimethoxy-1,2,3,4-tetrahydroisoquinoline]	40%	0.53 ± 0.3 min	10.5 ± 1.5 min	90%	9.7 ± 0.9 min	2.2 ± 0.02 min	4700 mg/kg and 4937 mg/kg and 4937.4 (4827.7 ± 5084.9) mg/kg	survival rate of the animals increased to [2]: 90–100%; activity against tremorogenic and convulsive actions of nicotine versus reference drugs (in words) [2]: comparable activity to the reference drugs; survival of poisoned animals compared to carbamazepine and valproate (in words) ([2]; mouse, in vivo): did not improve the survival
COc1cc2c(cc1OC)C(c1ccccc1Br)NCC2 (centres unmarked) [Compound 13, 1-(2′-Bromophenyl)-6,7-dimethoxy-1,2,3,4-tetrahydroisoquinoline]	40%	0.31 ± 0.7 min	10.5 ± 1.3 min	50%	5.0 ± 0.7 min	2.2 ± 0.03 min	315.8 (281.2 ± 345.2) mg/kg	survival rate of strychnine-poisoned animals [1]: no more than 40%
COc1ccc(C2NCCc3cc(OC)c(OC)cc32)cc1 (centres unmarked) [Compound 5, 1-(4′-Methoxyphenyl)-6,7-dimethoxy-1,2,3,4-tetrahydroisoquinoline]	60%	0.54 ± 0.7 min	16.5 ± 1.8 min	80%	10.3 ± 0.6 min	2.1 ± 0.09 min	1040.3 (986.0 ± 1079.8) mg/kg	–
COc1cc2c(cc1OC)C(c1ccc(Cl)cc1)NCC2 (centres unmarked) [Compound 12, 1-(4′-Chlorophenyl)-6,7-dimethoxy-1,2,3,4-tetrahydroisoquinoline]	20%	0.23 ± 0.6 min	18.5 ± 1.8 min	70%	7.0 ± 0.4 min	2.1 ± 0.09 min	730.4 (598.2 ± 883.7) mg/kg	–
COc1ccc(C2NCCc3cc(OC)c(OC)cc32)cc1OC (centres unmarked) [Compound 22, 1-(3′,4′-Dimethoxyphenyl)-6,7-dimethoxy-1,2,3,4-tetrahydroisoquinoline]	30%	0.71 ± 0.6 min	12.7 ± 1.3 min	80%	–	2.2 ± 0.04 min	666.6 (557.9 ± 760.2) mg/kg	survival rate of strychnine-poisoned animals [1]: no more than 40%
COc1cc2c(cc1OC)C(c1ccccc1)NCC2 (centres unmarked) [Compound 2, 1-Phenyl-6,7-dimethoxy-1,2,3,4-tetrahydroisoquinoline]	60%	0.43 ± 0.9 min	14.1 ± 1.5 min	70%	3.2 ± 0.6 min	3.2 ± 0.07 min	273.2 (249.7 ± 296.7) mg/kg	–
NC(=O)N1c2ccccc2C=Cc2ccccc21 [Carbamazepine, reference compound]	–	–	–	–	–	–	–	responders at 5 mg/kg ([1]; Mus musculus, sc, dose 5.0 mg/kg, strychnine 1.5 mg/kg s.c., read-out: Survival Rate): 40%; responders at 10 mg/kg ([1]; Mus musculus, sc, dose 10.0 mg/kg, strychnine 1.5 mg/kg s.c., read-out: Survival Rate): 50%; Duration of Tremor and Seizures [1, 8]: 0.43 ± 0.5 min; Latency to Tremor and Seizure Onset [1, 8]: 14.6 ± 1.4 min; Duration of Tremor and Seizures [1, 9]: 0.38 ± 0.8 min; Latency to Tremor and Seizure Onset [1, 9]: 12.6 ± 1.7 min; increase of latency time for seizure onset [1, 10]: 29–49%; reduction of the duration of seizures [1, 10]: 21–37%; increase of the survival rate of the animals [1]: 40–50%; responders at 5 mg/kg [2, 11]: 60%; responders at 10 mg/kg [2, 11]: 80%; Duration of Seizures [2, 12]: 15.2 ± 0.9 min; Latency to Seizure Onset [2, 12]: 1.57 ± 0.07 min; Duration of Seizures [2, 13]: 4.7 ± 0.6 min; Latency to Seizure Onset [2, 13]: 1.5 ± 0.02 min; survival rate [2]: 60–80%
CCCC(CCC)C(=O)O [Valproate (Convulex), Valproate, reference compound]	–	–	–	–	–	–	–	responders at 75 mg/kg [1, 11]: 40%; responders at 100 mg/kg [1, 11]: 20%; Duration of Tremor and Seizures [1, 14]: 0.34 ± 0.6 min; Latency to Tremor and Seizure Onset [1, 14]: 15.4 ± 1.5 min; Duration of Tremor and Seizures [1, 15]: 0.32 ± 0.4 min; Latency to Tremor and Seizure Onset [1, 15]: 14.3 ± 1.3 min; increase of latency time [1, 16]: 46–57%; reduction of the duration of seizures [1, 16]: 53%; increase of the survival rate of the animals [1]: 20–40%; responders at 75 mg/kg ([2]; Mus musculus, sc, dose 75.0 mg/kg, nicotine 10 mg/kg s.c., read-out: Survival Rate): 90%; responders at 100 mg/kg ([2]; Mus musculus, sc, dose 100.0 mg/kg, nicotine 10 mg/kg s.c., read-out: Survival Rate): 90%; Duration of Seizures [2, 17]: 6.2 ± 0.4 min; Latency to Seizure Onset [2, 17]: 1.2 ± 0.04 min; Duration of Seizures [2, 18]: 10.8 ± 0.8 min; Latency to Seizure Onset [2, 18]: 1.5 ± 0.06 min; survival rate [2]: 90%

— PMC12472494, “Anticonvulsant Potential of 1-Aryl-6,7-dimethoxy-1,2,3,4-tetrahydroisoquinolines: Insights from Strychnine and Nicotine Models in In Vivo and In Silico Studies” (Pharmaceuticals, 2025)
